# How the values were obtained:
# Format in all cases: biochemical
# Settings in all cases: 10 nM JAK enzyme, 800 nM Abl peptide, room temperature 75 min
# JAK2 = JAK2 (Homo sapiens, UniProt O60674); test: JAK assay (KINASE-GLO luminescent kinase assay), JAK2
# Summary of the method: (§1)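 The 2× mix gave 10 nM kinase, 800 nM Abl peptide and 2 µM DTT, and ATP was added as a 4× stock (2 µM), in HEPES pH 7.5 buffer. Compounds ran as an 11-point series, 100 µM–10 pM final in 2.5% DMSO, for 75 min at RT. Remaining ATP was read by luminescence against DMSO control, and 4-parameter IC50s were converted to Ki by Cheng-Prusoff.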
# JAK1 = JAK1 (Homo sapiens, UniProt P23458); test: JAK assay (KINASE-GLO luminescent kinase assay), JAK1
# Summary of the method: as §1
# TYK2 = TYK2 (Homo sapiens, UniProt P29597); test: JAK assay (KINASE-GLO luminescent kinase assay), TYK2
# JAK3 = target: T1, JAK3 (Homo sapiens, UniProt P52333); test: JAK assay (KINASE-GLO luminescent kinase assay), JAK3
# T1 sequence (P52333 1-1124): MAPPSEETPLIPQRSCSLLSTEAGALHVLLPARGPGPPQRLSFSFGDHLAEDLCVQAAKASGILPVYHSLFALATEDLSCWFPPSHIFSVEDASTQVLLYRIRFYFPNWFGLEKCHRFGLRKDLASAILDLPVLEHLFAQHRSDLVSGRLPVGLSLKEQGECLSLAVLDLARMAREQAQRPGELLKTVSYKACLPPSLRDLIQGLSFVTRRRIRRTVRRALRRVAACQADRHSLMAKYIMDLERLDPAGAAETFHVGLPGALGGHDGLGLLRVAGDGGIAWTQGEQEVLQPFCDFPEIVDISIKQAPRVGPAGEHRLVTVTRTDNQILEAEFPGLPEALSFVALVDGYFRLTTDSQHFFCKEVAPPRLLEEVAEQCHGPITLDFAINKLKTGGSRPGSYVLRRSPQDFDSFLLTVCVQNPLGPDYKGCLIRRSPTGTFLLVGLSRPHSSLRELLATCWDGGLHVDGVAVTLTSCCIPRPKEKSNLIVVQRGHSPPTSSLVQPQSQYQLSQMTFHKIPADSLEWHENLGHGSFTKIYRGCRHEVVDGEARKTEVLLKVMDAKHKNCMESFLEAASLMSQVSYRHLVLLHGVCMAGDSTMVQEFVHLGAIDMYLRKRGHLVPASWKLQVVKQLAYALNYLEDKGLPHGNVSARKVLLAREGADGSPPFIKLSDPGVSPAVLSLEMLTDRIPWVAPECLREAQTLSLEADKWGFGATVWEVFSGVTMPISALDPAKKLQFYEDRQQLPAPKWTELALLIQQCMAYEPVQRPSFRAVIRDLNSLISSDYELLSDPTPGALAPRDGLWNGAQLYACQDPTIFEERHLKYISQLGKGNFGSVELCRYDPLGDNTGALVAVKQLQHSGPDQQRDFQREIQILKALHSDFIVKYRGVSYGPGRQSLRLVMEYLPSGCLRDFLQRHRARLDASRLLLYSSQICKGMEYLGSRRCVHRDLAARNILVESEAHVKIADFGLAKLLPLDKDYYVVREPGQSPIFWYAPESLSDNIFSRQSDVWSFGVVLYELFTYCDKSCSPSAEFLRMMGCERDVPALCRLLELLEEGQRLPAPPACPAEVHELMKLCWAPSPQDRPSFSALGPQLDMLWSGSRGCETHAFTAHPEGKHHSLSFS
# Summary of the method: as §1
# Chain of JAK2 (O60674 whole entry): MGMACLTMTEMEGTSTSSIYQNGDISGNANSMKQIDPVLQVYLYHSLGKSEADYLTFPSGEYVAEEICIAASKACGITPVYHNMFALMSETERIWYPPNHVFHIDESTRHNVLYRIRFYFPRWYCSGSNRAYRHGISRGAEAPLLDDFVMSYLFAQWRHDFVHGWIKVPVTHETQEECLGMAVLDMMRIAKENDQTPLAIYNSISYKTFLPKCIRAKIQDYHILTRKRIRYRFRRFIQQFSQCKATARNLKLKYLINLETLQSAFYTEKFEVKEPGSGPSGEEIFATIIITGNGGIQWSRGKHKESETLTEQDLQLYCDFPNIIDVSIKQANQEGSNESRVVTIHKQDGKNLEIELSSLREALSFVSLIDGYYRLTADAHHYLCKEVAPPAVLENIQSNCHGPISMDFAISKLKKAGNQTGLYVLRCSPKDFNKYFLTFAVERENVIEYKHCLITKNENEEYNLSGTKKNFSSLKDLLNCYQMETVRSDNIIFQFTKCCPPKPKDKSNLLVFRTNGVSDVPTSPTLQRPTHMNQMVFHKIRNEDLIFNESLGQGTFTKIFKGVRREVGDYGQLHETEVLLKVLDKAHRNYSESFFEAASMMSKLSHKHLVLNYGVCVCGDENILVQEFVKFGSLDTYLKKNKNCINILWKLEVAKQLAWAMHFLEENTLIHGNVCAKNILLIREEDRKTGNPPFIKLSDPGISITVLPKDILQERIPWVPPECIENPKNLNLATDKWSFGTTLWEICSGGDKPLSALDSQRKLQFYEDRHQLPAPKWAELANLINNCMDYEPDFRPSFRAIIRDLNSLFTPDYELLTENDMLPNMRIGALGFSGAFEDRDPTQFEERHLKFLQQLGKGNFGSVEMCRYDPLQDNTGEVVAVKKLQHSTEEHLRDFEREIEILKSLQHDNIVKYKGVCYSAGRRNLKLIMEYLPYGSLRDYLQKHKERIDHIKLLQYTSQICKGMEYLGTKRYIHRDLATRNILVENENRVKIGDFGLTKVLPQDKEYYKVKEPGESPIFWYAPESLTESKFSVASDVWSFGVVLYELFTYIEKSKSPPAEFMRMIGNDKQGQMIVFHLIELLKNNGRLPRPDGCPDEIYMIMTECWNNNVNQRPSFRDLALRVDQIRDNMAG
# Chain of TYK2 (P29597 whole entry): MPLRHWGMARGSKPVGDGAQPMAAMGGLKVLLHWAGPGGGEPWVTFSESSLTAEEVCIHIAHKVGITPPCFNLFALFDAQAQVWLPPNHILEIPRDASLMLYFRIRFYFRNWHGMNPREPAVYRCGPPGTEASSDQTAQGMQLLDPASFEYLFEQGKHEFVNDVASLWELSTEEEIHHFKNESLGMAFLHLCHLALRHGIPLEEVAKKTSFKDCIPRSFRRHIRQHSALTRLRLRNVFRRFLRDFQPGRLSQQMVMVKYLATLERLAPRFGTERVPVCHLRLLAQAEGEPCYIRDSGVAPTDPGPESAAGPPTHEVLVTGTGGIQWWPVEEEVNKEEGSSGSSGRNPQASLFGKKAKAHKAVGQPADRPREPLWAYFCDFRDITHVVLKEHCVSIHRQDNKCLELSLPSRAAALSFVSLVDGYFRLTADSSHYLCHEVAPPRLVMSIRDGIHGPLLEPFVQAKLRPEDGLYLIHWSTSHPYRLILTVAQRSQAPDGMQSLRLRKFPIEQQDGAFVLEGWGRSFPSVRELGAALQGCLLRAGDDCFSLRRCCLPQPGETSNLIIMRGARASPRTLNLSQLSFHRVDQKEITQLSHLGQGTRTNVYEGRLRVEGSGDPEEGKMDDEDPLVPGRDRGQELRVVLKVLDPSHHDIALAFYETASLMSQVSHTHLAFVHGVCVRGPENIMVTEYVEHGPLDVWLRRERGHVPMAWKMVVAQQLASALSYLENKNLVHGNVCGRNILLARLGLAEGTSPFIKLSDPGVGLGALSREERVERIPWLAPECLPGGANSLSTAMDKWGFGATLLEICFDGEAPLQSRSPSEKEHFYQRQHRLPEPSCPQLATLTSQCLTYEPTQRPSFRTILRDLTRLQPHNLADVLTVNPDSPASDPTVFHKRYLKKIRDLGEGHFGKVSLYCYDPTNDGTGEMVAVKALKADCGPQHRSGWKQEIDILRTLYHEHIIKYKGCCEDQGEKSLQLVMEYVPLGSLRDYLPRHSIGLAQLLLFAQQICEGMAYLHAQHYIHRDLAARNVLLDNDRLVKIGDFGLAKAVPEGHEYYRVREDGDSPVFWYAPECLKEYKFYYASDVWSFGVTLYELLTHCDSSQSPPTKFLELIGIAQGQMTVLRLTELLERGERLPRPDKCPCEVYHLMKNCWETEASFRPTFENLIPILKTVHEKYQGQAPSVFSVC
# Chain of JAK1 (P23458 whole entry): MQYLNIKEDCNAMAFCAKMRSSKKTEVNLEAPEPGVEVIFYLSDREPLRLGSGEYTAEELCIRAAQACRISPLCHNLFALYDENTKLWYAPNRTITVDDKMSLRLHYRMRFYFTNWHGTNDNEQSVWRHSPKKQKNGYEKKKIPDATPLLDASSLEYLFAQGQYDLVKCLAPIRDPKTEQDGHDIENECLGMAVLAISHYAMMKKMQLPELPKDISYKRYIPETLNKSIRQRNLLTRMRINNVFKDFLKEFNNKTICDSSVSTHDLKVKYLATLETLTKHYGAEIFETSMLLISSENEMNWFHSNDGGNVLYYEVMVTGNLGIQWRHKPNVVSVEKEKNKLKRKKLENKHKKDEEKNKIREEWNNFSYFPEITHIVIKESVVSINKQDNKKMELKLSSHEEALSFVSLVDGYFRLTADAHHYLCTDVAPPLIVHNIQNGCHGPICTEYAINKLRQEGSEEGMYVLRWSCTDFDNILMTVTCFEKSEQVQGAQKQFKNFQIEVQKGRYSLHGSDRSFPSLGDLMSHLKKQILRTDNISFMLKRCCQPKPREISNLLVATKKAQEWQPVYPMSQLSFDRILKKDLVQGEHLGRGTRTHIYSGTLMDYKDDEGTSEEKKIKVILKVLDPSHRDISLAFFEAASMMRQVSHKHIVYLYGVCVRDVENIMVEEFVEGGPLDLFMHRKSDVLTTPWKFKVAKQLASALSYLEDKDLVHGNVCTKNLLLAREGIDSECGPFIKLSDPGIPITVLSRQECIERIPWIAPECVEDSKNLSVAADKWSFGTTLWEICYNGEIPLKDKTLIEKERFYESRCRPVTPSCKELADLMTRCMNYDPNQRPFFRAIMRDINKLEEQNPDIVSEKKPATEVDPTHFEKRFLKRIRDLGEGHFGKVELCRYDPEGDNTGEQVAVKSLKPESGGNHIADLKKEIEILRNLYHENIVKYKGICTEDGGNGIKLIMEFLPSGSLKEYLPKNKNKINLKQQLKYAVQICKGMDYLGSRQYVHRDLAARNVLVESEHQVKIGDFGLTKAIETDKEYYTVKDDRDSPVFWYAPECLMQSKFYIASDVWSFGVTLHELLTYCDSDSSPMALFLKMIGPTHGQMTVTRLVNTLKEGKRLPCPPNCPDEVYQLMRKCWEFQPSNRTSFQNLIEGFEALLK
Structure (SMILES),IC50 (JAK2) [nM],IC50 (JAK1) [nM],IC50 (TYK2) [nM],IC50 (JAK3) [nM]
Clc1cnc(Nc2cccc(CN3CCC3)c2)nc1 [ClC1═C(N═C(NC2═CC(═CC═C2)CN3CCC3)N═C1)],< 10,< 100,< 10,< 10
N#CC1(Cn2cc(-c3nc(Nc4ccns4)ncc3Cl)cn2)CCC1 [ClC1═C(N═C(NC2═CC═NS2)N═C1)C3═C[N]],< 10,< 100,< 100,< 100
N#CCCn1cc(-c2nc(Nc3ccsc3)ncc2Cl)cn1 [ClC1═C(N═C(NC2═CSC═C2)N═C1)C3═C[N]],< 100000,< 100000,< 100000,< 100000
Clc1cnc(NC23CC(C2)C3)nc1-c1cnn(Cc2cccs2)c1 [ClC1═C(N═C(NC23CC(C2)C3)N═C1)C4═C[N]],> 50000,> 50000,> 50000,< 100000
N#CC1(Cn2cc(-c3nc(Nc4cnc5ccnn5c4)ncc3Cl)cn2)CCC1 [ClC1═C(N═C],< 100,< 100000,< 1000,< 1000
N#CCCn1cc(-c2nc(NC3CCNCC3(F)F)ncc2Cl)cn1 (centres unmarked) [FC1(F)CNCCC1NC2═NC(═C],< 100000,> 50000,> 50000,> 50000
N#CCCn1cc(-c2nc(Nc3cccc(CN4CC(F)C4)c3)ncc2Cl)cn1 [FC1CN(C1)CC2═CC═CC(═C2)NC3═NC(═C],< 10,< 100,< 10,< 10
N#CCCn1cc(-c2nc(Nc3ccc(N4CCOCC4)c(F)c3)ncc2Cl)cn1 [FC1═CC(═CC═C1N2CCOCC2)NC3═NC(═C],< 10,< 10,< 10,< 10
N#CCCn1cc(-c2nc(Nc3ccc(N4CCOCC4)cc3F)ncc2Cl)cn1 [FC1═CC(═CC═C1NC2═NC(═C],< 10,< 1000,< 100,< 100
N#CCCn1cc(-c2nc(Nc3cc(C(F)(F)F)no3)ncc2Cl)cn1 [FC(F)(F)C1═NOC(═C1)NC2═NC(═C],< 1000,> 50000,> 50000,> 50000
FC(F)C1(Cn2cc(-c3nc(Nc4ccc5cnoc5c4)ncc3Cl)cn2)COC1 [FC(F)C1(COC1)C[N]2C═C(C═N2)C3═C],< 10,< 1000,< 1000,< 100
N#CCC1(Cn2cc(-c3ccnc(Nc4ccns4)n3)cn2)CC1 [N#CCC1(CC1)C[N]2C═C(C═N2)C3═CC═NC],< 10,< 100,< 100,< 100
N#CCC1(Cn2cc(-c3nc(Nc4ccns4)ncc3C3CC3)cn2)CC1 [N#CCC1(CC1)C[N]2C═C(C═N2)C3═C],< 10,< 100,< 100,< 100
NC(=O)CCn1cc(-c2nc(NC3CCNCC3(F)F)ncc2Cl)cn1 (centres unmarked) [NC(═O)CC[N]1C═C(C═N1)C2═C],< 100000,> 50000,> 50000,> 50000
NCc1cccc(Nc2ncc(Cl)c(-c3cnn(CC4(CF)CC4)c3)n2)c1 [NCC1═CC═CC(═C1)NC2═NC(═C],< 10,< 100,< 100,< 10
N#CCCn1cc(-c2nc(Nc3ccc(C(=O)O)cc3)ncc2Cl)cn1 [OC(═O)C1═CC═C(NC2═NC(═C],< 10,< 10,< 10,< 100
N#CCCn1cc(-c2nc(Nc3cccc(C(=O)O)c3)ncc2Cl)cn1 [OC(═O)C1═CC═CC(═C1)NC2═NC],< 10,< 1000,< 1000,< 1000
N#CC1(Cn2cc(-c3nc(Nc4ccc(C(=O)O)nc4)ncc3Cl)cn2)CC1 [OC(═O)C1═NC═C(NC2═NC(═C],< 10,< 100,< 100,< 1000
N#CCC1(Cn2cc(-c3ccnc(Nc4cc(CO)ns4)n3)cn2)CC1 [OCC1═NSC(═C1)NC2═NC(═CC═N2)C3═C[N]],< 10,< 100,< 10,< 100
OCC(O)c1cccc(Nc2ncc(Cl)c(-c3cnn(CC4(CF)CC4)c3)n2)c1 (centres unmarked) [OCC(O)C1═CC═CC(═C1)NC2═NC(═C],< 10,< 10,< 10,< 10
N#CCCn1cc(-c2nc(Nc3ccc(CCO)cc3)ncc2Cl)cn1 [OCCC1═CC═C(NC2═NC(═C],< 10,< 100,< 10,< 100
N#CCCn1cc(-c2nc(Nc3ccc(CCOP(=O)(O)O)cc3)ncc2Cl)cn1 [O[P](O)(═O)OCCC1═CC═C(NC2═NC(═C],< 10,< 100,< 10,< 100
N#CCCn1cc(-c2ccnc(NC(=O)C3CC3)n2)cn1 [O═C(NC1═NC(═CC═N1)C2═C[N]],< 100000,< 100000,< 100000,> 50000
